Read-outs that look alike come from different tables or passages of the source.
Tests used:
FES = FES (Homo sapiens, UniProt P07332)
Procedure: (§1) This was completed utilizing one of two assays depending on the kinase being examined.
(§2) A solution of IMAP binding reagent (IMAP Screening Express kit; Molecular Devices) (60 μL) was added to each well and incubated for 30 minutes.
(§3) A solution of termination buffer (QuickScout Screening assist MSA; Carna Biosciences) (60 μL) was added to each well. The entire reaction mixture was then applied to a LabChip3000 system (Caliper Life Science) and the product and substrate peptide peaks were separated and quantified.
(§4) The assay utilized was identical to that of the single point inhibitory activity determination (MSA) but run in dose response. […] A solution of termination buffer (QuickScout Screening assist MSA; Carna Biosciences) (60 μL) was added to each well. The entire reaction mixture was then applied to a LabChip3000 system (Caliper Life Science) and the product and substrate peptide peaks were separated and quantified.

EPHA3 = EPHA3 (Homo sapiens, UniProt P29320)
Procedure: as §1, §2, §3, §4

PKD2 = PKD2 (Homo sapiens, UniProt Q9BZL6)
Procedure: as §1, §2, §3, §4

NEK7 = NEK7 (Homo sapiens, UniProt Q8TDX7)
Procedure: as §1, §2, §3, §4

PASK = PASK (Homo sapiens, UniProt Q96RG2)
Procedure: as §1, §2, §3, §4

p38δ = p38δ (Homo sapiens, UniProt O15264)
Procedure: as §1, §2, §3, §4

ABL(E255K) = ABL(E255K) (Homo sapiens, UniProt P00519, E255K)
Procedure: as §1, §2, §3

EPHB2 = EPHB2 (Homo sapiens, UniProt P29323)
Procedure: as §1, §2, §3, §4

SLK = SLK (Homo sapiens, UniProt Q9H2G2)
Procedure: as §1, §2, §3, §4

CDK9/CycT1 = CDK9/CycT1 (Homo sapiens, UniProt P50750)
Procedure: as §1, §2, §3, §4

HIPK2 = HIPK2 (Homo sapiens, UniProt Q9H2X6)
Procedure: as §1, §2, §3, §4

PIM3 = PIM3 (Homo sapiens, UniProt Q86V86)
Procedure: as §1, §2, §3

DYRK3 = DYRK3 (Homo sapiens, UniProt O43781)
Procedure: as §1, §2, §3, §4

PDHK2 = PDHK2 (Homo sapiens, UniProt Q15119)
Procedure: as §1, §2, §3, §4

BRSK1 = BRSK1 (Homo sapiens, UniProt Q8TDC3)
Procedure: as §1, §2, §3, §4

MAP3K1_Cascade = MAP3K1_Cascade (Homo sapiens, UniProt Q13233)
Procedure: as §1, §2, §3, §4

CK1γ3 = CK1γ3 (Homo sapiens, UniProt Q9Y6M4)
CK1γ3, sequence (Q9Y6M4 whole entry): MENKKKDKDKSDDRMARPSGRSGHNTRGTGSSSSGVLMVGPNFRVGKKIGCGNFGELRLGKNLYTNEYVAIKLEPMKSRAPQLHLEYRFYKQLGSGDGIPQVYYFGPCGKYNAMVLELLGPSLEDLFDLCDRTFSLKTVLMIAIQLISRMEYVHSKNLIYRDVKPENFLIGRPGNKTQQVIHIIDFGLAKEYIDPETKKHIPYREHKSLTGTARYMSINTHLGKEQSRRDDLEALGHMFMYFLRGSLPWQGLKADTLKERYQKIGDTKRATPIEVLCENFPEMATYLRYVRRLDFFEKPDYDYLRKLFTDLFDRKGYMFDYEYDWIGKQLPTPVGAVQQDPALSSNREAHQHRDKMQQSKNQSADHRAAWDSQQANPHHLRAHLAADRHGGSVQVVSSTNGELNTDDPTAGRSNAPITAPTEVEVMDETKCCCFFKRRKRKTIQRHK
Procedure: as §1, §2, §3, §4

MAP4K2 = MAP4K2 (Homo sapiens, UniProt Q12851)
Procedure: as §1, §2, §3, §4

MSK2 = MSK2 (Homo sapiens, UniProt O75676)
Procedure: as §1, §2, §3, §4

CaMK2δ = CaMK2δ (Homo sapiens, UniProt Q13557)
Procedure: as §1, §2, §3, §4

EGFR(T790M) = EGFR(T790M) (Homo sapiens, UniProt P00533, T790M)
Procedure: as §1, §2, §3, §4

PLK1 = target: T1, PLK1 (Homo sapiens, UniProt P53350); assay: Carna kinase panel; assay type: biochemical
T1 construct: purchased Carna Biosciences
Procedure: as §1, §2, §3

IRAK4 = IRAK4 (Homo sapiens, UniProt Q9NWZ3)
Procedure: as §1, §2, §3, §4

FER = FER (Homo sapiens, UniProt P16591)
FER, sequence (P16591 whole entry): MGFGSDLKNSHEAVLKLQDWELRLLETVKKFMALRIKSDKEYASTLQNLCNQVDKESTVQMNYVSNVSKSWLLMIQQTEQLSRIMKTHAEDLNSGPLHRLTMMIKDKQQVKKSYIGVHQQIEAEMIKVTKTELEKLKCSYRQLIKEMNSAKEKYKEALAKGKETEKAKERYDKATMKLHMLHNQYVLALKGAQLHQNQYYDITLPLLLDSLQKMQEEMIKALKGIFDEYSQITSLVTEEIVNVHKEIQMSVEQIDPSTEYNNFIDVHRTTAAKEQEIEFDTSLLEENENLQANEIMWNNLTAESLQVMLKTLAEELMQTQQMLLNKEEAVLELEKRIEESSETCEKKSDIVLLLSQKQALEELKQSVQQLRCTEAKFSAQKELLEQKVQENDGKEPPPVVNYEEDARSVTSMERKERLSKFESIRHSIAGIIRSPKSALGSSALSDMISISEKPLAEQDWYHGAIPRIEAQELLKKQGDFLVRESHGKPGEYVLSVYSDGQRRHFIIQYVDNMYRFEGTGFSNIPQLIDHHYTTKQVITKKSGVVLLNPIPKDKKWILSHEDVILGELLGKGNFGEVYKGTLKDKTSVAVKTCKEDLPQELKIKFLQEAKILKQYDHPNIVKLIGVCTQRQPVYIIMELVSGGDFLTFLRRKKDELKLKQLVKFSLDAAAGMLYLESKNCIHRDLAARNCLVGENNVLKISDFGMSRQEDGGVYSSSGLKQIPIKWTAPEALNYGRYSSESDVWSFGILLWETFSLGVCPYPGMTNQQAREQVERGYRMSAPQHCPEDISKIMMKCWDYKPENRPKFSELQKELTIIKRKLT
Procedure: as §1, §2, §3

RET(S891A) = RET(S891A) (Homo sapiens, UniProt P07949, S891A)
RET(S891A), sequence (P07949 29-1114 S891A): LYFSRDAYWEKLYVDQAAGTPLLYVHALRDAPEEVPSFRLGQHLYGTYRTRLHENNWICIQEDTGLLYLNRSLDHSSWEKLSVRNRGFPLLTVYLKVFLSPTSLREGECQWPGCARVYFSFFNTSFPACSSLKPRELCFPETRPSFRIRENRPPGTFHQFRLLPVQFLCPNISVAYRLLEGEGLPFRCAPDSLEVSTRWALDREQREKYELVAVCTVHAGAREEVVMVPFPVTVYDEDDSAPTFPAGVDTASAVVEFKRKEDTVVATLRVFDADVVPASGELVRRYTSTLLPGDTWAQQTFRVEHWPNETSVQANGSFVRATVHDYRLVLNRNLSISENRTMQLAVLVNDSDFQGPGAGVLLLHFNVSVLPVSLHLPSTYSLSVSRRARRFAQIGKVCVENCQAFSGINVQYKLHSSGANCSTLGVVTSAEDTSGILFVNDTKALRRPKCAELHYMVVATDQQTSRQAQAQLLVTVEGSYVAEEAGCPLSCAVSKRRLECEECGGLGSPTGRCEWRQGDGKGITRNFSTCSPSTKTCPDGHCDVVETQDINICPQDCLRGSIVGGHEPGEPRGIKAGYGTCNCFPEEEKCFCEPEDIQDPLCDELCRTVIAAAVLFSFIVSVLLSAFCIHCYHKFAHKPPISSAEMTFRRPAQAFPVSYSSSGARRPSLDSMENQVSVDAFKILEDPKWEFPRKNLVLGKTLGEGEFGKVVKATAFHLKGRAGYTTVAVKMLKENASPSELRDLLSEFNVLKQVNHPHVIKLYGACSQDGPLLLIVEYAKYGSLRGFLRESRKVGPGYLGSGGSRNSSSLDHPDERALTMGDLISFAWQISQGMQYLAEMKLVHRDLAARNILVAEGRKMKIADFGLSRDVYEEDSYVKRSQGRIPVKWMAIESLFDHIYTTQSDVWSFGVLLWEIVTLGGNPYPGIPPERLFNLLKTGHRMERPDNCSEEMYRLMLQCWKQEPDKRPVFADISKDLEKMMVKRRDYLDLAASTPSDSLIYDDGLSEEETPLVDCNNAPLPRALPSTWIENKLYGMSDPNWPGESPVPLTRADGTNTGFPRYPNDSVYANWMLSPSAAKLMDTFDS
Procedure: as §1, §2, §3, §4

PIK3CA/PIK3R1 = PIK3CA/PIK3R1 (Homo sapiens, UniProt P42336)
Procedure: as §1, §2, §3, §4

NEK9 = NEK9 (Homo sapiens, UniProt Q8TD19)
Procedure: as §1, §2, §3, §4

MINK = MINK (Homo sapiens, UniProt Q8N4C8)
Procedure: as §1, §2, §3, §4

PKCε = PKCε (Homo sapiens, UniProt Q02156)
Procedure: as §1, §2, §3, §4

PKCζ = PKCζ (Homo sapiens, UniProt Q05513)
PKCζ, sequence (Q05513 whole entry): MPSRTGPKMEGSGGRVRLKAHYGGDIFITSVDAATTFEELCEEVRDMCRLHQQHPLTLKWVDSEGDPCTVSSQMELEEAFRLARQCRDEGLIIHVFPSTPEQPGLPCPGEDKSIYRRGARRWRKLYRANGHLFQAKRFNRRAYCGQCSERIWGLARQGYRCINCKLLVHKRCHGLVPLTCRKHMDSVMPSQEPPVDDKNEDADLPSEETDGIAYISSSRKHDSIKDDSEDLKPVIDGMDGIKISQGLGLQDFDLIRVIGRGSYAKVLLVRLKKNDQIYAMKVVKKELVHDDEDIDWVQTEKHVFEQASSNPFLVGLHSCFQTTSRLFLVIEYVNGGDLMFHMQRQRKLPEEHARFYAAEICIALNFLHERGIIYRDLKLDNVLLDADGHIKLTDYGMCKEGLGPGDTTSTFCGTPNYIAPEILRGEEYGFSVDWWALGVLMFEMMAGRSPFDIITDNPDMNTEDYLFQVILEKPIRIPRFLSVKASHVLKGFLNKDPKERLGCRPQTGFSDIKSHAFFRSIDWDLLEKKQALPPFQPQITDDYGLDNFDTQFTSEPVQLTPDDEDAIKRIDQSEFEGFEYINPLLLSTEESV
Procedure: as §1, §2, §3, §4

PKCβ2 = PKCβ2 (Homo sapiens, UniProt P05771)
PKCβ2, sequence (P05771 1-673 isoform P05771-2): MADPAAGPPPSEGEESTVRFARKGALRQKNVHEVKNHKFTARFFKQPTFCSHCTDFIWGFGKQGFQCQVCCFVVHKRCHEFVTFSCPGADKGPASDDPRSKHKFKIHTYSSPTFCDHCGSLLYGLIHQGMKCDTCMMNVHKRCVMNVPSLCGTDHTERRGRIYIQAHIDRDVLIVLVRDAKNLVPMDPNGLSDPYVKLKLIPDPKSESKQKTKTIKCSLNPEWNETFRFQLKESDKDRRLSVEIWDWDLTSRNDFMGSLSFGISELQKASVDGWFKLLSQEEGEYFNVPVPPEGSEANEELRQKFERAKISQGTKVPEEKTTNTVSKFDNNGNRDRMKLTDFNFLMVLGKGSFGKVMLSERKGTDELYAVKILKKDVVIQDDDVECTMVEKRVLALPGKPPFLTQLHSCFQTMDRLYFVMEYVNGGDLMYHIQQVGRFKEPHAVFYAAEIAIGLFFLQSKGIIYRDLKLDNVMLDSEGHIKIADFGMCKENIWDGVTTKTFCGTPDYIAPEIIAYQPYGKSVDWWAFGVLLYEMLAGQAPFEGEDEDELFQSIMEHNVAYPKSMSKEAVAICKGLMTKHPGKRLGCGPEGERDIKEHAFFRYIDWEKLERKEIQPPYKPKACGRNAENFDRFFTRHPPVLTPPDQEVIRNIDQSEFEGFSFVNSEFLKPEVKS
Procedure: as §1, §2, §3

HIPK1 = HIPK1 (Homo sapiens, UniProt Q86Z02)
Procedure: as §1, §2, §3

NuaK1 = NuaK1 (Homo sapiens, UniProt O60285)
Procedure: as §1, §2, §3, §4

MER = MER (Homo sapiens, UniProt Q12866)
Procedure: as §1, §2, §3, §4

RSK4 = RSK4 (Homo sapiens, UniProt Q9UK32)
RSK4, sequence (Q9UK32 whole entry): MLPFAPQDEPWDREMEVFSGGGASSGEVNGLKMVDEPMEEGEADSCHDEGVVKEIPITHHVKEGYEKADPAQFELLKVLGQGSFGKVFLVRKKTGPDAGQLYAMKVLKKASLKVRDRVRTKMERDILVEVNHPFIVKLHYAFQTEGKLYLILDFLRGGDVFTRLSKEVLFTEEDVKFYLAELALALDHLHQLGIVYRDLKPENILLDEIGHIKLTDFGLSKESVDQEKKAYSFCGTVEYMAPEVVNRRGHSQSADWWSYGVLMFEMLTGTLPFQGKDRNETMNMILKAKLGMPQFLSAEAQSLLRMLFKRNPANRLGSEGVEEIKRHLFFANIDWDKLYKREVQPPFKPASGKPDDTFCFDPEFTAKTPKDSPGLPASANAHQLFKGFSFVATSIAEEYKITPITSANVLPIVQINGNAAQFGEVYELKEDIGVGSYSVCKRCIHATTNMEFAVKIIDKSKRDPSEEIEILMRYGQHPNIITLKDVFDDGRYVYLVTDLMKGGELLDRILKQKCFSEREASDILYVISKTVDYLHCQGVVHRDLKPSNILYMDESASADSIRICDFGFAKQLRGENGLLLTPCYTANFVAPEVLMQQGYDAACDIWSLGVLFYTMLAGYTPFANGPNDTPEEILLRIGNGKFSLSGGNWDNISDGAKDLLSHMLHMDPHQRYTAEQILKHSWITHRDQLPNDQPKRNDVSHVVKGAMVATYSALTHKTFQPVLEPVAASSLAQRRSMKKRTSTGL
Procedure: as §1, §2, §3

RET(M918T) = RET(M918T) (Homo sapiens, UniProt P07949, M918T)
RET(M918T), sequence (P07949 29-1114 M918T): as the sequence (P07949 29-1114 S891A) above, with A863S, M890T counted along it
Procedure: as §1, §2, §3, §4

CHK1 = CHK1 (Homo sapiens, UniProt O14757)
CHK1, sequence (O14757 whole entry): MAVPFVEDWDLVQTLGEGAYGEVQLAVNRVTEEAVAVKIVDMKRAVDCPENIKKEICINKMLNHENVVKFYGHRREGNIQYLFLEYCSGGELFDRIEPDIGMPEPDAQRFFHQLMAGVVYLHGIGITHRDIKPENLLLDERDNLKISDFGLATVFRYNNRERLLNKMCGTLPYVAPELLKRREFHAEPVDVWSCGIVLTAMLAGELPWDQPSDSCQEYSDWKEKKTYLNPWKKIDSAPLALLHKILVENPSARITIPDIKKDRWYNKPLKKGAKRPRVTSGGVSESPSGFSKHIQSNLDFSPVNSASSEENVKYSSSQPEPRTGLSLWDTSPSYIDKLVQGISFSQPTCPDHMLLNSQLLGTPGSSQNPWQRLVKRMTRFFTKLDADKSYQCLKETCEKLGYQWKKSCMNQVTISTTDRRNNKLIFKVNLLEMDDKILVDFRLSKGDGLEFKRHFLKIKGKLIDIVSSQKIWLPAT
Procedure: as §1, §2, §3, §4

CDK2/CycE1 = CDK2/CycE1 (Homo sapiens, UniProt P24941)
Procedure: as §1, §2, §3, §4

PDHK4 = PDHK4 (Homo sapiens, UniProt Q16654)
Procedure: as §1, §2, §3, §4

FGFR1(V561M) = FGFR1(V561M) (Homo sapiens, UniProt P11362, V561M)
Procedure: as §1, §2, §3, §4

`CC[C@@]1(c2ccccc2)C2=C(CC(C)(C)CC2=O)Nc2n[nH]cc21` [BRD0705] was tested, and the “% Inhibition at 10 μM” value (FES) was 0.6%, the “% Inhibition at 10 μM” value (EPHA3) was 25.2% and the “% Inhibition at 10 μM” value (PKD2) was −22.1%. The “% Inhibition at 10 μM” value (NEK7) was −1.0%, the “% Inhibition at 10 μM” value (PASK) was 0.2% and the “% Inhibition at 10 μM” value (p38δ) was 2.4%. For the same compound, the “% Inhibition at 10 μM” value (ABL(E255K)) was −0.3%, the “% Inhibition at 10 μM” value (EPHB2) was 6.5% and the “% Inhibition at 10 μM” value (SLK) was −10.7%. The “% Inhibition at 10 μM” value (CDK9/CycT1) was 8.4%, the “% Inhibition at 10 μM” value (HIPK2) was −0.5% and the “% Inhibition at 10 μM” value (PIM3) was 1.2%. The “% Inhibition at 10 μM” value (DYRK3) was 7.7%, the “% Inhibition at 10 μM” value (PDHK2) was −0.5% and the “% Inhibition at 10 μM” value (BRSK1) was −1.6%. The “% Inhibition at 10 μM” value (MAP3K1_Cascade) was 1.8%, the “% Inhibition at 10 μM” value (CK1γ3) was −2.1% and the “% Inhibition at 10 μM” value (MAP4K2) was −0.7%. For the same compound, the “% Inhibition at 10 μM” value (MSK2) was −2.5%, the “% Inhibition at 10 μM” value (CaMK2δ) was −4.4% and the “% Inhibition at 10 μM” value (EGFR(T790M)) was −4.9%. The “% Inhibition at 10 μM” value (PLK1) was −12.3%, the “% Inhibition at 10 μM” value (IRAK4) was −7.4% and the “% Inhibition at 10 μM” value (FER) was 1.7%. For the same compound, the “% Inhibition at 10 μM” value (RET(S891A)) was −3.1%, the “% Inhibition at 10 μM” value (PIK3CA/PIK3R1) was −10.7% and the “% Inhibition at 10 μM” value (NEK9) was 3.5%. The “% Inhibition at 10 μM” value (MINK) was 2.4%, the “% Inhibition at 10 μM” value (PKCε) was −4.5% and the “% Inhibition at 10 μM” value (PKCζ) was −1.0%. For the same compound, the “% Inhibition at 10 μM” value (PKCβ2) was −5.7%, the “% Inhibition at 10 μM” value (HIPK1) was −6.5% and the “% Inhibition at 10 μM” value (NuaK1) was −2.0%. For the same compound, the “% Inhibition at 10 μM” value (MER) was −3.3%, the “% Inhibition at 10 μM” value (RSK4) was 1.1% and the “% Inhibition at 10 μM” value (RET(M918T)) was −2.9%. For the same compound, the “% Inhibition at 10 μM” value (CHK1) was 2.9%, the “% Inhibition at 10 μM” value (CDK2/CycE1; CDK2/CycE1) was 53.4% and the IC50 (CDK2/CycE1; read-out: IC50 CDK2/CycE1) was 9.43 µM. For the same compound, the “% Inhibition at 10 μM” value (PDHK4) was 11.0% and the “% Inhibition at 10 μM” value (FGFR1(V561M)) was −3.2%.

`CC(C)(C)Cc1[nH]nc2c1[C@](C)(c1ccccc1)C1=C(CC(C)(C)CC1=O)N2` [BRD3731] was tested, and the “% Inhibition 10 μM” value (FES; 10 μM) was 0.4%, the “% Inhibition 10 μM” value (EPHA3; 10 μM) was 3.0% and the “% Inhibition 10 μM” value (PKD2; 10 μM) was 17.2%. The “% Inhibition 10 μM” value (NEK7; 10 μM) was −3.2%, the “% Inhibition 10 μM” value (PASK; 10 μM) was 10.7% and the “% Inhibition 10 μM” value (p38δ; 10 μM) was −0.2%. The “% Inhibition 10 μM” value (ABL(E255K); 10 μM) was 8.3%, the “% Inhibition 10 μM” value (EPHB2; 10 μM) was 6.4% and the “% Inhibition 10 μM” value (SLK; 10 μM) was −1.8%. The “% Inhibition 10 μM” value (CDK9/CycT1; 10 μM) was 11.3%, the “% Inhibition 10 μM” value (HIPK2; 10 μM) was 3.2% and the “% Inhibition 10 μM” value (PIM3; 10 μM) was 13.1%. The “% Inhibition 10 μM” value (DYRK3; 10 μM) was 16.0%, the “% Inhibition 10 μM” value (PDHK2; 10 μM) was 12.7% and the “% Inhibition 10 μM” value (BRSK1; 10 μM) was 7.9%. For the same compound, the “% Inhibition 10 μM” value (MAP3K1_Cascade; 10 μM) was 4.0%, the “% Inhibition 10 μM” value (CK1γ3; 10 μM) was −2.1% and the “% Inhibition 10 μM” value (MAP4K2; 10 μM) was −7.5%. For the same compound, the “% Inhibition 10 μM” value (MSK2; 10 μM) was 12.6%, the “% Inhibition 10 μM” value (CaMK2δ; 10 μM) was −0.3% and the “% Inhibition 10 μM” value (EGFR(T790M); 10 μM) was −4.0%. The “% Inhibition 10 μM” value (PLK1; 10 μM) was −0.7%, the “% Inhibition 10 μM” value (IRAK4; 10 μM) was 0.1% and the “% Inhibition 10 μM” value (FER; 10 μM) was 6.4%. For the same compound, the “% Inhibition 10 μM” value (RET(S891A); 10 μM) was −0.6%, the “% Inhibition 10 μM” value (PIK3CA/PIK3R1; 10 μM) was 42.5% and the “% Inhibition 10 μM” value (NEK9; 10 μM) was 2.9%. For the same compound, the “% Inhibition 10 μM” value (MINK; 10 μM) was 2.2%, the “% Inhibition 10 μM” value (PKCε; 10 μM) was 1.8% and the “% Inhibition 10 μM” value (PKCζ; 10 μM) was 5.0%. For the same compound, the “% Inhibition 10 μM” value (PKCβ2; 10 μM) was 3.8%, the “% Inhibition 10 μM” value (HIPK1; 10 μM) was 5.8% and the “% Inhibition 10 μM” value (NuaK1; 10 μM) was −0.9%. The “% Inhibition 10 μM” value (MER; 10 μM) was 33.7%, the “% Inhibition 10 μM” value (RSK4; 10 μM) was 33.9% and the “% Inhibition 10 μM” value (RET(M918T); 10 μM) was −2.2%. For the same compound, the “% Inhibition 10 μM” value (CHK1; 10 μM) was −16.4%, the IC50 (CDK2/CycE1; CDK2/CycE1) was 8.8 µM and the “% Inhibition 10 μM” value (CDK2/CycE1; CDK2/CycE1, 10 μM) was 42.6%. For the same compound, the “Fold Selectivity” value (CDK2/CycE1; IC50 CDK2/CycE1 / IC50 GSK3β) was 326.9 fold, the “% Inhibition 10 μM” value (PDHK4; 10 μM) was 24.2% and the “% Inhibition 10 μM” value (FGFR1(V561M); 10 μM) was 0.3%.

From US20160375006A1, “USES OF PARALOG-SELECTIVE INHIBITORS OF GSK3 KINASES” (priority 2012, published 2016)
